The text below walks through data of article PMC12472947 (Pharmaceuticals, 2025).

Assay [1] deals with electric eel AChE [EeAChE] (Electrophorus electricus, UniProt O42275). Nature of the assay: biochemical. It counts as biochemical. As to conditions: for IC50: Electric eel AChE, Ellman method, read-out: IC50(nM) ± SD AChE (EeAChE); for SI: Selectivity Index = EqBChE IC50/EeAChE IC50. The protocol: (§1) The anticholinesterase activity was determined using Ellman’s method, adapted as follows. […] Subsequently, 60 μL of 5,5′-dithiobis(2-nitrobenzoic acid) (DTNB, 1.1 mM) and 30 μL of enzyme solution (electric eel AChE [EeAChE], human AChE [hAChE], or equine serum BChE [EqBChE], 0.20 U/mL) containing 1 mg/mL bovine serum albumin (BSA) were added. […] Enzyme activity was calculated as the percentage relative to untreated controls, subtracting the blank reference. IC50 values were derived via non-linear regression analysis of dose–response curves (Figure S4) using GraphPad Prism v7.0.
Chain of electric eel AChE [EeAChE] (O42275 24-633): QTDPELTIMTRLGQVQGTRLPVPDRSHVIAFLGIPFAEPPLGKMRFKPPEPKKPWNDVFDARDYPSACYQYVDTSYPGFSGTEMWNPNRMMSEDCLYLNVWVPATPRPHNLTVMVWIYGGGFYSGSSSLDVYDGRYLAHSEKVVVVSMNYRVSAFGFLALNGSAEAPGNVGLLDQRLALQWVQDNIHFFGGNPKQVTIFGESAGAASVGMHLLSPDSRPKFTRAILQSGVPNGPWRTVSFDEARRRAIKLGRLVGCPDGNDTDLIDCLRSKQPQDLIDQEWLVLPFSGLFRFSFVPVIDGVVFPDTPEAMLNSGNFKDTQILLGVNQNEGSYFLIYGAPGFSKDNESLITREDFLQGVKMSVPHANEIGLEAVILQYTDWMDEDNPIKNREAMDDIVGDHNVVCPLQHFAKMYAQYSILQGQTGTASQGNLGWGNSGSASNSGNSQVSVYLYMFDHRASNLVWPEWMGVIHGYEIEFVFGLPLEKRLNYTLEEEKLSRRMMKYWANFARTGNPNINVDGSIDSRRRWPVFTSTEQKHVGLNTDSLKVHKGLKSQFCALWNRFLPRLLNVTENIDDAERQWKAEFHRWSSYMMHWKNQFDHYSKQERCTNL

For assay [2], the target named is T1, equine serum BChE [EqBChE] (Equus caballus, UniProt P81908).
T1 construct: equine serum BChE [EqBChE]; from tissue; host or cells: equine serum
T1 sequence (P81908 whole entry): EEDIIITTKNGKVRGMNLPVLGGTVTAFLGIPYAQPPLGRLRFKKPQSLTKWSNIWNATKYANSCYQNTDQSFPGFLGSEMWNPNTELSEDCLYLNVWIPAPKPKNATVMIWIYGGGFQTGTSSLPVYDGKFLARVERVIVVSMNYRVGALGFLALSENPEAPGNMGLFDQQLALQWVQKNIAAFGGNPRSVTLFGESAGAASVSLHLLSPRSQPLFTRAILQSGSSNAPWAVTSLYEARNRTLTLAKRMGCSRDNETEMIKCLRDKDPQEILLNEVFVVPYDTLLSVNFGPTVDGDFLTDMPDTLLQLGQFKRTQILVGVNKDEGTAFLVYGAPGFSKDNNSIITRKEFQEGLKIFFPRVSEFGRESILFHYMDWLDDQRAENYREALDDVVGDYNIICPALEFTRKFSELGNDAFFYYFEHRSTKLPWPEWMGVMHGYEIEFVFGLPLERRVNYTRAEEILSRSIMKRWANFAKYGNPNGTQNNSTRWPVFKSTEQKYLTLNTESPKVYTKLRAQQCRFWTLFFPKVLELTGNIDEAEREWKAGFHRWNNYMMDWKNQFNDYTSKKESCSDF
In words: biochemical. As to conditions: Ellman method, read-out: IC50(nM) ± SD BChE (EqBChE). The method, then: as §1

Assay [3] has as its target T2, equine serum butyrylcholinesterase (EqBuChE) (Equus caballus, UniProt P81908).
T2 construct: equine serum BChE [EqBChE]; from tissue; host or cells: equine serum
Nature of the assay: Enzymatic kinetic study, EqBChE. It counts as biochemical. The following applies: BChE. The protocol:
(§2) The enzymatic kinetics of cholinesterase inhibition were determined according to an adapted Ellman’s method. All of the solutions were prepared at 20 °C in 0.02 M Tris-HCl buffer (pH 7.5; ionic strength ~0.02 M), stock solutions of test compounds were prepared in DMSO:EtOH (7:3) mixture (20 mM), and the experiment was conducted in triplicate. To a flat-bottom 96-well transparent plate (path length of 0.6 cm) were added 150 μL of treatment solutions with inhibitors 1a, 1h, and 1j at two different concentrations (Table S1) distributed in eight sets of triplicate each. Eight sets of untreated triplicates were used as a negative control. Following, there were added 60 μL of 5,5′-Dithiobis(2-nitrobenzoic acid) (DTNB, Ellman’s reagent) at 1.1 mM and 30 μL of electric eel acetylcholinesterase (EeAChE) or equine serum butyrylcholinesterase (EqBuChE) at 0.20 U/mL in the presence of 1 mg/mL bovine serum albumin (BSA). […] Ki, Ki’ (competitive and noncompetitive inhibition constants, respectively), Km (Michaelis-Menten constant), and Vmax values were calculated with Graphpad Prism v7.0 using the non-linear regression models for enzyme kinetics inhibition and enzyme kinetics–substrate vs. velocity.

Assay [4] addresses electric eel acetylcholinesterase (EeAChE) (Electrophorus electricus, UniProt O42275). In words: Enzymatic kinetic study, EeAChE. As to conditions: AChE. Format: biochemical. The protocol: as §2
Where [5] appears, read: enzyme-substrate complex, global non-linear regression (Table 2).
[6] abbreviates: global non-linear regression, mixed inhibition (Table S3).

“And” between values parts separate entries of the source, which are not always exact repeats. Equal values may be shown once. Read-outs that look alike come from different tables or passages of the source.

Chain of electric eel acetylcholinesterase (EeAChE) (O42275 24-633): as the sequence (O42275 24-633) above
T2 sequence (P81908 whole entry): as the sequence (P81908 whole entry) above

Consider `O=c1oc2cc(OCCCCN3CCCCC3)ccc2cc1-c1cn(-c2ccccc2)nn1` [Compound 1c, 3-(1-Phenyl-1H-1,2,3-triazol-4-yl)-7-(4-(piperidin-1-yl)butoxy)-2H-chromen-2-one], for which, in assay [1], the IC50 is 1110 ± 10 nM and the SI is listed as around 2. Besides, the IC50 in assay [2] came to 2410 ± 29 nM.

In the case of `CN1CCN(CCOc2ccc3cc(-c4cn(-c5ccccc5)nn4)c(=O)oc3c2)CC1` [Compound 1f, 7-(2-(4-Methylpiperazin-1-yl)ethoxy)-3-(1-phenyl-1H-1,2,3-triazol-4-yl)-2H-chromen-2-one], in assay [1], the IC50 was 3160 ± 76 nM and the SI came to 3. The IC50 in assay [2] stood at 8140 ± 890 nM.

In the case of `O=c1oc2cc(OCCN3CCNCC3)ccc2cc1-c1cn(-c2ccccc2)nn1` [Compound 1g, 3-(1-Phenyl-1H-1,2,3-triazol-4-yl)-7-(2-(piperazin-1-yl)ethoxy)-2H-chromen-2-one], in assay [1], the IC50 was 1060 ± 74 nM and the SI is recorded as around 8. Besides, the IC50 in assay [2] is 9840 ± 130 nM.

On to `O=c1oc2cc(OCCCCCN3CCCCC3)ccc2cc1-c1cn(-c2ccccc2)nn1` [Compound 1d, 3-(1-Phenyl-1H-1,2,3-triazol-4-yl)-7-((5-(piperidin-1-yl)pentyl)oxy)-2H-chromen-2-one], for which, in assay [1], the IC50 was found to be 4790 ± 290 nM and the SI is given as around 1. Moreover, in assay [2], the half-inhibitory concentration (IC50) was determined as 3540 ± 81 nM.

Regarding `COc1ccccc1Cn1cc(-c2cc3ccc(OCCN4CCCCC4)cc3oc2=O)nn1` [Compound 1i, 3-(1-(2-Methoxybenzyl)-1H-1,2,3-triazol-4-yl)-7-(2-(piperidin-1-yl)ethoxy)-2H-chromen-2-one], in assay [1], the 50% inhibitory concentration (IC50) came out at 15.3 ± 0.25 nM and the SI stood at 184. Moreover, in assay [2], the IC50 turned out to be 2810 ± 230 nM.

With `O=c1oc2cc(OCCN3CCCCC3)ccc2cc1-c1cn(Cc2ccc(Cl)cc2)nn1` [Compound 1n, 3-(1-(4-Chlorobenzyl)-1H-1,2,3-triazol-4-yl)-7-(2-(piperidin-1-yl)ethoxy)-2H-chromen-2-one], the IC50 was 104 ± 5.4 nM in assay [1] and 2240 ± 60 nM in assay [2].

Turning to `O=c1oc2cc(OCCN3CCCCC3)ccc2cc1-c1cn(Cc2cccc(Cl)c2)nn1` [Compound 1m], in assay [1], the IC50 came to 13.1 ± 0.83 nM and the SI is 149. For the same compound, the IC50 in assay [2] amounted to 1950 ± 120 nM.

Regarding `O=c1oc2cc(OCCN3CCCCC3)ccc2cc1-c1cn(Cc2ccc(Br)cc2)nn1` [Compound 1p, 3-(1-(4-Bromobenzyl)-1H-1,2,3-triazol-4-yl)-7-(2-(piperidin-1-yl)ethoxy)-2H-chromen-2-one], in assay [1], the IC50 came out at 12.9 ± 0.96 nM and the SI is listed as 88. Also, the IC50 in assay [2] amounted to 1140 ± 70 nM.

Turning to `O=c1oc2cc(OCCN3CCCCC3)ccc2cc1-c1cn(-c2ccccc2)nn1` [Compound 1a, 3-(1-Phenyl-1H-1,2,3-triazol-4-yl)-7-(2-(piperidin-1-yl)ethoxy)-2H-chromen-2-one], the values for the IC50 in assay [1] and in assay [2] were 50 ± 2.04 nM and 8660 ± 150 nM, respectively. Also, the SI in assay [1] is reported as 173. Besides, the inhibition mechanism entry in assay [3] (Lineweaver-Burk plots) and in assay [4] (Lineweaver-Burk plots) was “mixed-type inhibition” each time. Also, the Ki in assay [3] (competitive inhibition constant (Table S2), read-out: Ki (nM) ± SD) was determined as 3500 ± 64.9 nM; in assay [3] (free enzyme (Table S3), read-out: Ki ± SE (95% CI)), 3940 ± 227 nM; in assay [3] (free enzyme, global non-linear regression (Table 2), read-out: Ki (nM) ± SE) it was 3940 ± 230 nM; in assay [4] (free enzyme, global non-linear regression to mixed-inhibition equation (Table 2), read-out: Ki (nM) ± SE) it was 30.8 ± 5.38 nM. The “Ki’ (nM) ± SE” value in assay [3] (setting [5]) is reported as 11,400 ± 1100 nM; in assay [4] (setting [5]), 61.59 ± 20.04 nM. In addition, the “α ± SE (95% CI)” value in assay [3] (setting [6]) was found to be 2.883 ± 0.3970; in assay [4] (setting [6]) it was 2.001 ± 0.6489. Also, the “Vmax ± SD” value in assay [3] (inhibitor 4 μM) is 11.69 ± 0.201 1 × 10^3 nM/min and 11.69 ± 0.20 1 × 10^3 nM/min; in assay [3] (inhibitor 8 μM), 8.24 ± 0.212 1 × 10^3 nM/min and 8.24 ± 0.21 1 × 10^3 nM/min; in assay [4] (inhibitor 0.02 μM), 2.78 ± 0.044 1 × 10^3 nM/min and 2.78 ± 0.04 1 × 10^3 nM/min; in assay [4] (inhibitor 0.06 μM), 2.06 ± 0.031 1 × 10^3 nM/min and 2.06 ± 0.03 1 × 10^3 nM/min. Further, the “Ki′ ± SE (95% CI)” value in assay [4] (enzyme-substrate complex (Table S3)) was found to be 0.06159 ± 0.02004 µM.

On to `O=c1oc2cc(OCCN3CCCCC3)ccc2cc1-c1cn(Cc2ccc(F)cc2)nn1` [Compound 1l, 3-(1-(4-Fluorbenzyl)-1H-1,2,3-triazol-4-yl)-7-(2-(piperidin-1-yl)ethoxy)-2H-chromen-2-one], for which, in assay [1], the IC50 turned out to be 23.4 ± 1.77 nM and the SI is recorded as 176. Besides, the IC50 in assay [2] came out at 4120 ± 110 nM.

Consider `CC1CCN(CCOc2ccc3cc(-c4cn(-c5ccccc5)nn4)c(=O)oc3c2)CC1` [Compound 1e, 7-(2-(4-Methylpiperidin-1-yl)ethoxy)-3-(1-phenyl-1H-1,2,3-triazol-4-yl)-2H-chromen-2-one], for which, in assay [1], the IC50 was determined as 1690 ± 75 nM and the SI was around 7. Further, in assay [2], the IC50 is 11100 nM.

Regarding `O=c1oc2cc(OCCN3CCCCC3)ccc2cc1-c1cn(Cc2cccc(Br)c2)nn1` [Compound 1o, 3-(1-(3-Bromobenzyl)-1H-1,2,3-triazol-4-yl)-7-(2-(piperidin-1-yl)ethoxy)-2H-chromen-2-one], the values for the IC50 in assay [1] and in assay [2] were 7.92 ± 0.48 nM and 2090 ± 54 nM, respectively. This compound also yielded an SI in assay [1] of 265.
